Data published in article PMC10924921, “Mi-2β promotes immune evasion in melanoma by activating EZH2 methylation” (Nature Communications, 2024).

Assays:
Assay in all cases: biochemical
Design in all cases: KINOMEscan active-site competition binding panel (468 kinase assays), per cent of control at 1000 nM
Conditions in all cases: KINOMEscan per cent of control (binding competition); read-out: Percent Control
[1] = target: T1, ABL1(F317I)-phosphorylated (Homo sapiens, UniProt P00519, F317I)
T1 construct: phosphorylated
Description: (§1) Figure S7 / Percent Control

[2] = target: ACVR2B (Homo sapiens, UniProt Q13705)
Description: as §1

[3] = target: ALK (Homo sapiens, UniProt Q9UM73)
Description: as §1

[4] = target: AXL (Homo sapiens, UniProt P30530)
Description: as §1

[5] = target: BMX (Homo sapiens, UniProt P51813)
Description: as §1

[6] = target: CDK4 (Homo sapiens, UniProt P11802)
Chain of CDK4 (P11802 whole entry): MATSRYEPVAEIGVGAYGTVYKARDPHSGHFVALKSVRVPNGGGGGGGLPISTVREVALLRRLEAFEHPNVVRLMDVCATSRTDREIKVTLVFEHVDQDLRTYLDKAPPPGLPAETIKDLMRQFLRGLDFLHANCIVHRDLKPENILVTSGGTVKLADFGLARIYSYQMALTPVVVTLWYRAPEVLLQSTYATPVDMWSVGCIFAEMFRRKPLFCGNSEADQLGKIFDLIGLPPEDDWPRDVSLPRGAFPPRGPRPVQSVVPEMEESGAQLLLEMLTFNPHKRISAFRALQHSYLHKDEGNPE
Description: as §1

[7] = target: CIT (Homo sapiens, UniProt O14578)
Description: as §1

[8] = target: EGFR(G719S) (Homo sapiens, UniProt P00533, G719S)
Description: as §1

[9] = target: FLT3(K663Q) (Homo sapiens, UniProt P36888, K663Q)
Description: as §1

[10] = target: FLT3-autoinhibited (Homo sapiens, UniProt P36888)
Description: as §1

[11] = target: HIPK3 (Homo sapiens, UniProt Q9H422)
Chain of HIPK3 (Q9H422 whole entry): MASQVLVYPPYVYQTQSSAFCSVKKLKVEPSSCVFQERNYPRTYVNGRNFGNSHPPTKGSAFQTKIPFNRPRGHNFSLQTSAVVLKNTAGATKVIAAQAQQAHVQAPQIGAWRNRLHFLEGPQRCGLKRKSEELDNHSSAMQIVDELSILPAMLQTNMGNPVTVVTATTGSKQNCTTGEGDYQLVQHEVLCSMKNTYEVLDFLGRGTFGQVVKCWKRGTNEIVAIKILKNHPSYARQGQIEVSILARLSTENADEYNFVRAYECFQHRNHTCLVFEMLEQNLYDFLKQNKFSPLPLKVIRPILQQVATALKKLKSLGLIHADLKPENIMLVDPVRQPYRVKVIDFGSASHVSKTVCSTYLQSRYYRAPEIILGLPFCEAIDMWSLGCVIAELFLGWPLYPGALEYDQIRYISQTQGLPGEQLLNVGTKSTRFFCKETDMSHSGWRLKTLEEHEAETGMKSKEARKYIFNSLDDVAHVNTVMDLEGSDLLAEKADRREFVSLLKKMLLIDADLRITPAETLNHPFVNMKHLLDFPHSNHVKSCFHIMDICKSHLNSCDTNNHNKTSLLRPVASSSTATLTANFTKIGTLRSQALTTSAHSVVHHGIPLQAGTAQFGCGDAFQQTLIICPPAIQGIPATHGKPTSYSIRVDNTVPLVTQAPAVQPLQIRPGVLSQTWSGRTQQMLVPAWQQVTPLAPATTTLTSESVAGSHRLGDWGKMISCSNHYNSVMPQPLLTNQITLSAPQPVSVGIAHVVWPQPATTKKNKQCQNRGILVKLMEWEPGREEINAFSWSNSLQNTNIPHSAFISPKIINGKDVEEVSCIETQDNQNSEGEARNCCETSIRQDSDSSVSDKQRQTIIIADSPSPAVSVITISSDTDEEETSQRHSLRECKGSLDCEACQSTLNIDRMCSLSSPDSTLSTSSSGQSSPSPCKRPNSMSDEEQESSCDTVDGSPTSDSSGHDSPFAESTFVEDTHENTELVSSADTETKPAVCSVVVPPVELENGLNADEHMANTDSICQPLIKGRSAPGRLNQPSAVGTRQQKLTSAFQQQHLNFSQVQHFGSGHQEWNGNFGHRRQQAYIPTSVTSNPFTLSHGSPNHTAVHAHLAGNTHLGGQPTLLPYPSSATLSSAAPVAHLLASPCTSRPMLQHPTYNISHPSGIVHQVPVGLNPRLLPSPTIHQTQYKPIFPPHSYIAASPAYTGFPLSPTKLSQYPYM
Description: as §1

[12] = target: T2, ICK (Homo sapiens, UniProt Q9UPZ9)
T2 construct: gene CILK1
T2 sequence (Q9UPZ9 whole entry): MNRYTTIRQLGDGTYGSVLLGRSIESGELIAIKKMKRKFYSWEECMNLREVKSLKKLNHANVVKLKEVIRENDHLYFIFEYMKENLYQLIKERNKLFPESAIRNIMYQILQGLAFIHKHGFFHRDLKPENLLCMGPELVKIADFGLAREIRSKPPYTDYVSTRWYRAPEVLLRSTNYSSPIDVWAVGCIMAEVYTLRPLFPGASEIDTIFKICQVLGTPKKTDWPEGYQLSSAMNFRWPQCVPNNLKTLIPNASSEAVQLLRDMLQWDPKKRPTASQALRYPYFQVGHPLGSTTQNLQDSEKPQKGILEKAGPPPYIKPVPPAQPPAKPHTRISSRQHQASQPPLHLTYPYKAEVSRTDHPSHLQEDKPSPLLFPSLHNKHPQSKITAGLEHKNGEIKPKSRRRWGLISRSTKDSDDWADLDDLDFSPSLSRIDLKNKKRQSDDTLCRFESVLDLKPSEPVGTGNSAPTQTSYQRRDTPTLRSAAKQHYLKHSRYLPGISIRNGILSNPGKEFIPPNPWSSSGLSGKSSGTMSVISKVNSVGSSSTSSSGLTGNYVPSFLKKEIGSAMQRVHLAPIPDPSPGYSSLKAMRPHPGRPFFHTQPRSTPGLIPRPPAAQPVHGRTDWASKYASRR
Description: as §1

[13] = target: T3, IKK-beta (Homo sapiens, UniProt O14920)
T3 construct: gene IKBKB
T3 sequence (O14920 whole entry): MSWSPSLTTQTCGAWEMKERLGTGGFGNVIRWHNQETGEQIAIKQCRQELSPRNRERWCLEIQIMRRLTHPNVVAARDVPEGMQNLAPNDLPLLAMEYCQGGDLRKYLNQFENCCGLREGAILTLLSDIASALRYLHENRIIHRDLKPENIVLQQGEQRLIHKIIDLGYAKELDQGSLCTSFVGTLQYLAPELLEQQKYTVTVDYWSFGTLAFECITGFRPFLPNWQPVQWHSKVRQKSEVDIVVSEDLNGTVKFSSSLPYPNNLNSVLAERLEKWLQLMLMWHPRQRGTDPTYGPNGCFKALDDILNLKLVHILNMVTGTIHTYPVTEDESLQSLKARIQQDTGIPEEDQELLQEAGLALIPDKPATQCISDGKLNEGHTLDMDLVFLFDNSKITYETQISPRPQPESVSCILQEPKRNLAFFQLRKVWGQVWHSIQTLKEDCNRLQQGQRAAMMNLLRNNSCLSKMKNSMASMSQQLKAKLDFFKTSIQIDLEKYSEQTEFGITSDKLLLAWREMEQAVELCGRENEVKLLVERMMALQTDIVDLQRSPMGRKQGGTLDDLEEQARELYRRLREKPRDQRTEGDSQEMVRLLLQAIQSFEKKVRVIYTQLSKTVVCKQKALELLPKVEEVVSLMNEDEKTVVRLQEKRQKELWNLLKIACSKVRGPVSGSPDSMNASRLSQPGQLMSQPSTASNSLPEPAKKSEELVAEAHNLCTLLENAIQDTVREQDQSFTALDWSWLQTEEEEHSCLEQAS
Description: as §1

[14] = target: LRRK2 (Homo sapiens, UniProt Q5S007)
Description: as §1

[15] = target: LYN (Homo sapiens, UniProt P07948)
Description: as §1

[16] = target: T4, MLK1 (Homo sapiens, UniProt P80192)
T4 construct: gene MAP3K9
Description: as §1

[17] = target: MYO3B (Homo sapiens, UniProt Q8WXR4)
Description: as §1

[18] = target: PIK3CA(E545A) (Homo sapiens, UniProt P42336, E545A)
Chain of PIK3CA(E545A) (P42336 whole entry E545A): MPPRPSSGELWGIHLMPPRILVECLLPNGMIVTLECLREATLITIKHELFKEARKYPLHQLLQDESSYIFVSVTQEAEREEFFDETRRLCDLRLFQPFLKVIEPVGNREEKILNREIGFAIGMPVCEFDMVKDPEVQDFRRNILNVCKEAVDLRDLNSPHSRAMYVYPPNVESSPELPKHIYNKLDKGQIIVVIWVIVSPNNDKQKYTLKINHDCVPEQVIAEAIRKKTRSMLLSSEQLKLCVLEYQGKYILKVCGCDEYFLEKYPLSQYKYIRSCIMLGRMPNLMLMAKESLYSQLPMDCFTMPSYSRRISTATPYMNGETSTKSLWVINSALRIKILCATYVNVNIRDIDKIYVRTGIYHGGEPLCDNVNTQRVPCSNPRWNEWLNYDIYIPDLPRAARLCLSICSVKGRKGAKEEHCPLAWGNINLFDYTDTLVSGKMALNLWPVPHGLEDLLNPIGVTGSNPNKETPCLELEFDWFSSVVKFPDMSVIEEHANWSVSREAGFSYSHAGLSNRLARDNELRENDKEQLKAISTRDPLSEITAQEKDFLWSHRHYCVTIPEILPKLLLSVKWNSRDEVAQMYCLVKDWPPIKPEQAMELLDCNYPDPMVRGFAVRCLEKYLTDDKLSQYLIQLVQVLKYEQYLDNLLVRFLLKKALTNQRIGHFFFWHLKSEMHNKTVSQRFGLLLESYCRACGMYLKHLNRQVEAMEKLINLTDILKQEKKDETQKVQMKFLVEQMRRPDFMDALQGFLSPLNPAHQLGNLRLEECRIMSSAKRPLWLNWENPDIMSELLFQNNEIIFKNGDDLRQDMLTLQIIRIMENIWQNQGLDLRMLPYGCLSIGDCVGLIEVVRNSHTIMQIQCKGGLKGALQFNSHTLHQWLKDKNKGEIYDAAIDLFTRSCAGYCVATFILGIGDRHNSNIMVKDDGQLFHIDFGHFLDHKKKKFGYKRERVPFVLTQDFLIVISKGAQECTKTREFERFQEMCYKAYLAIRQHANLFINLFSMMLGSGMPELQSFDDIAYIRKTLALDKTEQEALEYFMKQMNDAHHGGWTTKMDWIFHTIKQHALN
Description: as §1

[19] = target: T5, PKAC-alpha (Homo sapiens, UniProt P17612)
T5 construct: gene PRKACA
Description: as §1

[20] = target: RET(V804M) (Homo sapiens, UniProt P07949, V804M)
Description: as §1

[21] = target: SRPK2 (Homo sapiens, UniProt P78362)
Description: as §1

[22] = target: TEC (Homo sapiens, UniProt P42680)
Description: as §1

[23] = target: TNK1 (Homo sapiens, UniProt Q13470)
Chain of TNK1 (Q13470 whole entry): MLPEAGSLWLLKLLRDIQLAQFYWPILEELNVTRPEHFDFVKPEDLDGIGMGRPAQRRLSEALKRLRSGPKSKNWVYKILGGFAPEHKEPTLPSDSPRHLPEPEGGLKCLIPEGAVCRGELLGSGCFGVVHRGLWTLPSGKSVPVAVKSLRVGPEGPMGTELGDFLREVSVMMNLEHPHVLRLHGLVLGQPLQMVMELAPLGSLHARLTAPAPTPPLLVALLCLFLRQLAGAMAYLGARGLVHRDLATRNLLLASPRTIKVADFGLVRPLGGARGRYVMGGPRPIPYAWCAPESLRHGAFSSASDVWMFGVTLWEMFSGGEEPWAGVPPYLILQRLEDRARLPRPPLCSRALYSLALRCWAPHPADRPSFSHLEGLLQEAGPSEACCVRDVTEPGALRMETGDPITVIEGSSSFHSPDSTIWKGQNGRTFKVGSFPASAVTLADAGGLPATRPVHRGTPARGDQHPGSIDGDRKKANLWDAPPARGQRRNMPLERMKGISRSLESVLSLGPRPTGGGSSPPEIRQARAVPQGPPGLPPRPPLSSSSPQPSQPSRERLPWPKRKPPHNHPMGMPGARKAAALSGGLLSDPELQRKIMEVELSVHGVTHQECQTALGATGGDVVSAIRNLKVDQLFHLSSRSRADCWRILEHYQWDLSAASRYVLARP
Description: as §1

[24] = target: WNK1 (Homo sapiens, UniProt Q9H4A3)
Description: as §1

[25] = target: T6, p38-beta (Homo sapiens, UniProt Q15759)
T6 construct: gene MAPK11
T6 sequence (Q15759 whole entry): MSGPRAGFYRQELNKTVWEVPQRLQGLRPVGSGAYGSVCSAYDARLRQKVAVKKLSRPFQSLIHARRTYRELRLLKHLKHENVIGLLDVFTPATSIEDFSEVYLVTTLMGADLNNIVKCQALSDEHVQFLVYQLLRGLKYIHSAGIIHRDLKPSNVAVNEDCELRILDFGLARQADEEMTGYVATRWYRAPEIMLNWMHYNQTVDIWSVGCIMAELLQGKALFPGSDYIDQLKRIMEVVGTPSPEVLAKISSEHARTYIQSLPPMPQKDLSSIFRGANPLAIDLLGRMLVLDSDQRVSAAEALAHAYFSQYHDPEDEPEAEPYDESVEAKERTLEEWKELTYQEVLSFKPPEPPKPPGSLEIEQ
Description: as §1

Cn1c(=O)[nH]c2ccc(-c3cccc(C(=O)NC4CCn5ccnc5C4)c3)cc21 (stereo not shown) [Z36-MP5]
remaining binding at 1 µM [1]: 90%
remaining binding at 1 µM [2]: 91%
remaining binding at 1 µM [3]: 51%
remaining binding at 1 µM [4]: 94%
remaining binding at 1 µM [5]: 100%
remaining binding at 1 µM [6]: 62%
remaining binding at 1 µM [7]: 76%
remaining binding at 1 µM [8]: 85%
remaining binding at 1 µM [9]: 98%
remaining binding at 1 µM [10]: 51%
remaining binding at 1 µM [11]: 61%
remaining binding at 1 µM [12]: 100%
remaining binding at 1 µM [13]: 66%
remaining binding at 1 µM [14]: 71%
remaining binding at 1 µM [15]: 77%
remaining binding at 1 µM [16]: 98%
remaining binding at 1 µM [17]: 91%
remaining binding at 1 µM [18]: 89%
remaining binding at 1 µM [19]: 85%
remaining binding at 1 µM [20]: 36%
remaining binding at 1 µM [21]: 63%
remaining binding at 1 µM [22]: 98%
remaining binding at 1 µM [23]: 77%
remaining binding at 1 µM [24]: 59%
remaining binding at 1 µM [25]: 87%
